Source: patent publication US12568972B2, “Pyridazinol compounds and derivatives, preparation methods, herbicidal compositions and applications thereof” (Qingdao Kingagroot Chemical Compound Co., Ltd., priority 2018, dated 2026)

Experiments:
Experiment in all cases: Post-emergence test, weed control effect
Assay type in all cases: in vivo
Conditions in all cases: after 3 weeks
[1] = tested on: Rorippa indica
Outline: (§1)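 Seeds are sown in soil pots and raised in the greenhouse until the 2-3 leaf stage. Plants are then sprayed with compound dissolved in acetone with Tween-80, diluted in water and supplemented with 80% vegetable oil methyl ester synergist at 1500 g/ha, and fresh weight inhibition is rated 0-10 three weeks later.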

[2] = tested on: Veronica polita
Outline: as §1

[3] = tested on: Chenopodiaceae
Outline: as §1

[4] = tested on: Amaranthus retroflexus
Outline: as §1

SMILES	weed control effect, Rorippa indica (activity level) ([1]; Dose 3000 g/ha)	weed control effect, Veronica polita (activity level) ([2]; Dose 3000 g/ha)	weed control effect, Chenopodiaceae (activity level) ([3]; Dose 3000 g/ha)	weed control effect, Amaranthus retroflexus (activity level) ([4]; Dose 3000 g/ha)	weed control effect (activity level), Rorippa indica ([1]; Dose 3000 g/ha)	weed control effect (activity level), Veronica polita ([2]; Dose 3000 g/ha)	weed control effect (activity level), Chenopodiaceae ([3]; Dose 3000 g/ha)	weed control effect (activity level), Amaranthus retroflexus ([4]; Dose 3000 g/ha)	further results
COc1cc(Cl)c(COc2cc(C(F)(F)F)nnc2-c2ccc(F)cc2)cc1Cl [Compound 1-211]	10	10	10	10	–	–	–	–	–
CSCCC(=O)Oc1cc(C(F)(F)F)nnc1-c1ccc(F)c(F)c1 [Compound 1-77]	10	10	10	10	–	–	–	–	–
O=S(=O)(Oc1cc(C(F)(F)F)nnc1-c1ccc(F)cc1)c1ccc(F)cc1 [Compound 1-134]	10	10	10	10	–	–	–	–	–
Cc1[nH]nc(-c2nnc(C(F)(F)F)cc2O)c1C [Compound 544]	–	–	–	–	10	10	10	10	–
Oc1cc(C(F)(F)F)nnc1-c1cc(Cl)cnc1F [Compound 998]	–	–	–	–	10	10	10	10	–
CCCCCCCCOC(=O)Oc1cc(C(F)(F)F)nnc1-c1ccc(C(F)(F)F)cc1 [Compound 1-40]	10	10	10	10	–	–	–	–	–
Cc1ccncc1-c1nnc(C(F)(F)F)cc1O [Compound 975]	–	–	–	–	10	10	10	10	–
C#Cc1cc(OC2CC2)ncc1-c1nnc(C(F)(F)F)cc1O [Compound 231]	–	–	–	–	–	–	–	–	weed control effect (activity level), Rorippa indica ([1]; dose 2000 g/ha): 10; weed control effect (activity level), Veronica polita ([2]; dose 2000 g/ha): 10; weed control effect (activity level), Chenopodiaceae ([3]; dose 2000 g/ha): 10; weed control effect (activity level), Amaranthus retroflexus ([4]; dose 2000 g/ha): 10
Oc1cc(C(F)(F)F)nnc1-c1cccc(Cl)c1F [Compound 45]	–	–	–	–	–	–	–	–	weed control effect (activity level), Rorippa indica ([1]; dose 1000 g/ha): 10; weed control effect (activity level), Veronica polita ([2]; dose 1000 g/ha): 10; weed control effect (activity level), Chenopodiaceae ([3]; dose 1000 g/ha): 10; weed control effect (activity level), Amaranthus retroflexus ([4]; dose 1000 g/ha): 10
Cn1nc(F)cc1-c1nnc(C(F)(F)F)cc1O [Compound 775]	–	–	–	–	10	10	10	10	–
Cc1ccc(S(=O)(=O)Oc2cc(C(F)(F)F)nnc2-c2ccc(F)cc2)cc1 [Compound 1-132]	10	10	10	10	–	–	–	–	–
Cc1cc(-c2nnc(C(F)(F)F)cc2O)nn1C [Compound 540]	–	–	–	–	10	10	10	10	–
Cn1ncc(C2CC2)c1-c1nnc(C(F)(F)F)cc1O [Compound 810]	–	–	–	–	10	10	10	10	–
O=C(CCc1ccccc1)Oc1cc(C(F)(F)F)nnc1-c1ccc(F)cc1 [Compound 1-99]	10	10	10	10	–	–	–	–	–
CC(C)=Cc1nnc(C(F)(F)F)cc1O [Compound 1523]	–	–	–	–	10	10	10	10	–
Oc1cc(C(F)(F)F)nnc1-c1cncc(Cl)c1F [Compound 1008]	–	–	–	–	10	10	10	10	–
CCc1cnn(C)c1-c1nnc(C(F)(F)F)cc1O [Compound 809]	–	–	–	–	10	10	10	10	–
O=S(=O)(Oc1cc(C(F)(F)F)nnc1-c1ccc(F)c(F)c1)c1ccc(Cl)cc1 [Compound 1-130]	10	10	10	10	–	–	–	–	–

SMILES	weed control effect, Rorippa indica (activity level) ([1]; Dose 3000 g/ha)	weed control effect, Veronica polita (activity level) ([2]; Dose 3000 g/ha)	weed control effect, Chenopodiaceae (activity level) ([3]; Dose 3000 g/ha)	weed control effect, Amaranthus retroflexus (activity level) ([4]; Dose 3000 g/ha)	weed control effect (activity level), Rorippa indica ([1]; Dose 3000 g/ha)	weed control effect (activity level), Veronica polita ([2]; Dose 3000 g/ha)	weed control effect (activity level), Chenopodiaceae ([3]; Dose 3000 g/ha)	weed control effect (activity level), Amaranthus retroflexus ([4]; Dose 3000 g/ha)	further results
Cn1ncc(C#N)c1-c1nnc(C(F)(F)F)cc1O [Compound 820]	–	–	–	–	10	10	10	10	–
CC(C)OC(=O)Nc1ccc(-c2nnc(C(F)(F)F)cc2O)cn1 [Compound 323]	–	–	–	–	–	–	–	–	weed control effect (activity level), Rorippa indica ([1]; dose 2000 g/ha): 10; weed control effect (activity level), Veronica polita ([2]; dose 2000 g/ha): 10; weed control effect (activity level), Chenopodiaceae ([3]; dose 2000 g/ha): 10; weed control effect (activity level), Amaranthus retroflexus ([4]; dose 2000 g/ha): 10
Cc1cc(F)ncc1-c1nnc(C(F)(F)F)cc1O [Compound 221]	–	–	–	–	–	–	–	–	weed control effect (activity level), Rorippa indica ([1]; dose 2000 g/ha): 10; weed control effect (activity level), Veronica polita ([2]; dose 2000 g/ha): 10; weed control effect (activity level), Chenopodiaceae ([3]; dose 2000 g/ha): 10; weed control effect (activity level), Amaranthus retroflexus ([4]; dose 2000 g/ha): 10
CCOc1cnn(C)c1-c1nnc(C(F)(F)F)cc1O [Compound 812]	–	–	–	–	10	10	10	10	–
CCCn1cc(-c2nnc(C(F)(F)F)cc2O)cn1 [Compound 546]	–	–	–	–	10	10	10	10	–
O=[N+]([O-])c1cc(-c2nnc(C(F)(F)F)cc2O)ccc1F [Compound 66]	–	–	–	–	–	–	–	–	weed control effect (activity level), Rorippa indica ([1]; dose 1000 g/ha): 10; weed control effect (activity level), Veronica polita ([2]; dose 1000 g/ha): 10; weed control effect (activity level), Chenopodiaceae ([3]; dose 1000 g/ha): 10; weed control effect (activity level), Amaranthus retroflexus ([4]; dose 1000 g/ha): 10
Cc1ccc(-c2nnc(C(F)(F)F)cc2O)cc1 [Compound 4]	–	–	–	–	–	–	–	–	weed control effect (activity level), Rorippa indica ([1]; dose 2000 g/ha): 10; weed control effect (activity level), Veronica polita ([2]; dose 2000 g/ha): 10; weed control effect (activity level), Chenopodiaceae ([3]; dose 2000 g/ha): 8 (Level 8: above 80% growth inhibition rate); weed control effect (activity level), Amaranthus retroflexus ([4]; dose 2000 g/ha): 10
N#Cc1ccc(-c2nnc(C(F)(F)F)cc2O)cn1 [Compound 212]	–	–	–	–	–	–	–	–	weed control effect (activity level), Rorippa indica ([1]; dose 2000 g/ha): 10; weed control effect (activity level), Veronica polita ([2]; dose 2000 g/ha): 10; weed control effect (activity level), Chenopodiaceae ([3]; dose 2000 g/ha): 10; weed control effect (activity level), Amaranthus retroflexus ([4]; dose 2000 g/ha): 10
O=C(Oc1cc(C(F)(F)F)nnc1-c1ccccc1)N1CCOCC1 [Compound 1-65]	10	10	10	10	–	–	–	–	–
CN1CCN(S(=O)(=O)Oc2cc(C(F)(F)F)nnc2-c2ccc(F)cc2)CC1 [Compound 1-125]	10	10	10	10	–	–	–	–	–
Cc1ccc(-c2nnc(C(F)(F)F)cc2O)cc1F [Compound 56]	–	–	–	–	–	–	–	–	weed control effect (activity level), Rorippa indica ([1]; dose 1000 g/ha): 10; weed control effect (activity level), Veronica polita ([2]; dose 1000 g/ha): 10; weed control effect (activity level), Chenopodiaceae ([3]; dose 1000 g/ha): 10; weed control effect (activity level), Amaranthus retroflexus ([4]; dose 1000 g/ha): 10
N#Cc1ccncc1-c1nnc(C(F)(F)F)cc1O [Compound 980]	–	–	–	–	10	10	10	10	–
CCCCCCOC(=S)Oc1cc(C(F)(F)F)nnc1-c1ccc(Cl)c(Cl)c1Cl [Compound 1-160]	10	10	10	10	–	–	–	–	–
CN(C)C(=O)Oc1cc(C(F)(F)F)nnc1-c1ccc(F)c(F)c1 [Compound 1-60]	10	10	10	10	–	–	–	–	–
Oc1cc(C(F)(F)F)nnc1-c1cc2ccccc2cn1 [Compound 743]	–	–	–	–	10	10	10	10	–
C/C(=N/Oc1cc(C(F)(F)F)nnc1-c1ccc(C)c(C)c1)C(C)(C)C [Compound 1-174]	10	10	10	10	–	–	–	–	–
Cn1cc(S(=O)(=O)Oc2cc(C(F)(F)F)nnc2-c2cccc(F)c2)cn1 [Compound 1-151]	10	10	10	10	–	–	–	–	–
C#Cc1ccc(-c2nnc(C(F)(F)F)cc2O)nn1 [Compound 349]	–	–	–	–	–	–	–	–	weed control effect (activity level), Rorippa indica ([1]; dose 2000 g/ha): 10; weed control effect (activity level), Veronica polita ([2]; dose 2000 g/ha): 10; weed control effect (activity level), Chenopodiaceae ([3]; dose 2000 g/ha): 10; weed control effect (activity level), Amaranthus retroflexus ([4]; dose 2000 g/ha): 10
